Patent US20170008888A1 (KYORIN PHARMACEUTICAL CO., LTD., priority 2014, published 2017)
Read-outs that look alike come from different tables or passages of the source.

Experiments:
ACK = molecular target: T1, ACK (Homo sapiens, UniProt Q07912); experiment: Probe-based (AX9989) kinase profiling in Jurkat lysate: ACK; assay type: binding
T1 construct: screened for activity against several kinases in Jurkat cells; endogenous in cells; host or cells: Jurkat cell lysate
In short: (§1)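 Percent inhibition was derived from reduced LC/MS fragment intensities of probe-labeled peptides relative to compound-free controls. Before labeling with 5 μM AX9989, Mn2+-supplemented (20 mM) Jurkat lysate was exposed to compound for 15 min at room temperature.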

JAK1 = molecular target: T2, JAK1 (Homo sapiens, UniProt P23458); experiment: Probe-based (AX9989) kinase profiling in Jurkat lysate: JAK1; assay type: binding
T2 construct: screened for activity against several kinases in Jurkat cells; endogenous in cells; host or cells: Jurkat cell lysate
T2 sequence (P23458 whole entry): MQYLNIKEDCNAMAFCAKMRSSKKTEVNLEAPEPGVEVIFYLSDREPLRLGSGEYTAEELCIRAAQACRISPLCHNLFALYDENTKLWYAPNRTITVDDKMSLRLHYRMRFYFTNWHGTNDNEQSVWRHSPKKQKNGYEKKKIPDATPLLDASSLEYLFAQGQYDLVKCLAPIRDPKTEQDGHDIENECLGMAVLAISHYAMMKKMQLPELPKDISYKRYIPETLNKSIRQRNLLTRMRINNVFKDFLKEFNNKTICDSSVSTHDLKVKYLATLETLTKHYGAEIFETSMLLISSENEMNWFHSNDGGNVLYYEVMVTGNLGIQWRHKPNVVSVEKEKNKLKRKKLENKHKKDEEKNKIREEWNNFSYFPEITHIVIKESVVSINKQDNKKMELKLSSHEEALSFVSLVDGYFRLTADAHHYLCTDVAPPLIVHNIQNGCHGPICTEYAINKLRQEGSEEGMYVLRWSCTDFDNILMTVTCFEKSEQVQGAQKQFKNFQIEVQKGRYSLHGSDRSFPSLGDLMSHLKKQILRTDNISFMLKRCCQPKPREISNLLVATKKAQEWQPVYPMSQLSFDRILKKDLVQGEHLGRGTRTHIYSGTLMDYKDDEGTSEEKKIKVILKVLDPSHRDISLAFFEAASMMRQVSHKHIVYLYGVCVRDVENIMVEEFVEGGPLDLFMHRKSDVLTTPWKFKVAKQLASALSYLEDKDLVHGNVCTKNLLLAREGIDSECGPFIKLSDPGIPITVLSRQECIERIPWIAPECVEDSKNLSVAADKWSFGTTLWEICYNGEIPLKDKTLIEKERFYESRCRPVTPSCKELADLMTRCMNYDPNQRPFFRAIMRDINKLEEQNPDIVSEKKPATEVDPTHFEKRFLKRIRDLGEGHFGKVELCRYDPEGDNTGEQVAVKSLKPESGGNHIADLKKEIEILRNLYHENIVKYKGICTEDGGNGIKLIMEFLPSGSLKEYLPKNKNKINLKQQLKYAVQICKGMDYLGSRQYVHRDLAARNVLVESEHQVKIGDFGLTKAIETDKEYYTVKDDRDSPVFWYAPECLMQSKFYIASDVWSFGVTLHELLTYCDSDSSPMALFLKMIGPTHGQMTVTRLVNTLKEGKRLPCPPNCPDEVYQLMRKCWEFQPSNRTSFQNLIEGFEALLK
In short: as §1

ABL or ARG = experiment: Probe-based (AX9989) kinase profiling in Jurkat lysate: ABL or ARG; assay type: binding; conditions: for ABL or ARG Inhibition % at indicated screening concentration: screening concentration 1 μM
In short: as §1

ERK5 = molecular target: T3, ERK5 (Homo sapiens, UniProt Q13164); experiment: Probe-based (AX9989 acyl phosphate ATP probe) kinase profiling in Jurkat lysate: ERK5; assay type: binding; conditions: for IC50: Jurkat lysate
T3 construct: screened for activity against several kinases in Jurkat cells; endogenous in cells; host or cells: Jurkat cell lysate
T3 sequence (Q13164 whole entry): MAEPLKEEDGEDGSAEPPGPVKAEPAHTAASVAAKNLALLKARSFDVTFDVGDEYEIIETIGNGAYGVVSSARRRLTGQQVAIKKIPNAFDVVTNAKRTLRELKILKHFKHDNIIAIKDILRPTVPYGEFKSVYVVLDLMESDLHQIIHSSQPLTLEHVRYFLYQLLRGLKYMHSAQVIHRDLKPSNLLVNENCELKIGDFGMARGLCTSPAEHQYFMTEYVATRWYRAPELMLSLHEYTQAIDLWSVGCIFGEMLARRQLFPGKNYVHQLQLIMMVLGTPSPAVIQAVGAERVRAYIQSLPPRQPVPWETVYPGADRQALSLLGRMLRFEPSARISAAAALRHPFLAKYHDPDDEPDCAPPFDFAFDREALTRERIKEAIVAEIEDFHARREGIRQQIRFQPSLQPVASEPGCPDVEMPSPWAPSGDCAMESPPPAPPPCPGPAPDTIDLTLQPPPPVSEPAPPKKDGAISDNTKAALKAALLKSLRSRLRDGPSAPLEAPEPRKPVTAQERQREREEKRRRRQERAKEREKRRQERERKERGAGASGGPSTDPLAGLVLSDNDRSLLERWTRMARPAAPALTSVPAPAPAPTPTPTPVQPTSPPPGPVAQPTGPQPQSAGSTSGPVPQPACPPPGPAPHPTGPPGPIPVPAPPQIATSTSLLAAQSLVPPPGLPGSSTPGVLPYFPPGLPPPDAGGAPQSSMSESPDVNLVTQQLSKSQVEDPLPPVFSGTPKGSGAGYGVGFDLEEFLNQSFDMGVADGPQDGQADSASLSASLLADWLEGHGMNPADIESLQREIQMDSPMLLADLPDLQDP
In short: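 ERK5 IC50 values came from percent inhibition at the screening concentration, measured as loss of LC/MS signal of probe-labelled active-site peptides. Compound was added for 15 min at room temperature to Jurkat lysate (5 mg/ml, 20 mM MnCl2) before labelling with AX9989 ATP acyl phosphate probe at 5 μM.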

human PBMCs = experiment: Human PBMC TNF-α response to endotoxin (ELISA); assay type: cell-based; conditions: 0.1 μg/ml LPS 16 h, read-out: EC50 for the inhibition of the human PBMC TNF-α response to endotoxin, ave. ± S.D.
In short: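 PBMCs at 2e6 cells/ml in RPMI 1640 with 10% charcoal-dextran-treated FBS were pre-treated 1 h at 37 °C with compound (4-point 1:5 dilution from 10 μM). Stimulation with 0.1 μg/ml E. coli 0111:B4 LPS for 16 h; TNF-α measured by ELISA (A450) in 25-fold diluted supernatant.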

AurB or AurC = experiment: Probe-based (AX9989) kinase profiling in Jurkat lysate: AurB or AurC; assay type: binding; conditions: for AurB or AurC Inhibition % at indicated screening concentration: screening concentration 1 μM
In short: as §1

[1] = screening concentration 10.0 μM
[2] = calculated from percent inhibition of AX9989 labeling and the screening concentration
[3] = screening concentration 1.0 μM, read-out: Kinase inhibition % at indicated screening concentration: ACK
[4] = screening concentration 1.0 μM, read-out: Kinase inhibition % at indicated screening concentration: JAK1
[5] = screening concentration 1.0 μM, read-out: Kinase inhibition % at indicated screening concentration: ERK5
[6] = screening concentration 1 μM, read-out: ACK Inhibition % at indicated screening concentration
[7] = screening concentration 1 μM, read-out: JAK1 Inhibition % at indicated screening concentration
[8] = calculated from percent inhibition and screening concentration, AX9989 probe
[9] = screening concentration 1 μM, read-out: ERK5 Inhibition % at indicated screening concentration

T1 sequence (Q07912 whole entry): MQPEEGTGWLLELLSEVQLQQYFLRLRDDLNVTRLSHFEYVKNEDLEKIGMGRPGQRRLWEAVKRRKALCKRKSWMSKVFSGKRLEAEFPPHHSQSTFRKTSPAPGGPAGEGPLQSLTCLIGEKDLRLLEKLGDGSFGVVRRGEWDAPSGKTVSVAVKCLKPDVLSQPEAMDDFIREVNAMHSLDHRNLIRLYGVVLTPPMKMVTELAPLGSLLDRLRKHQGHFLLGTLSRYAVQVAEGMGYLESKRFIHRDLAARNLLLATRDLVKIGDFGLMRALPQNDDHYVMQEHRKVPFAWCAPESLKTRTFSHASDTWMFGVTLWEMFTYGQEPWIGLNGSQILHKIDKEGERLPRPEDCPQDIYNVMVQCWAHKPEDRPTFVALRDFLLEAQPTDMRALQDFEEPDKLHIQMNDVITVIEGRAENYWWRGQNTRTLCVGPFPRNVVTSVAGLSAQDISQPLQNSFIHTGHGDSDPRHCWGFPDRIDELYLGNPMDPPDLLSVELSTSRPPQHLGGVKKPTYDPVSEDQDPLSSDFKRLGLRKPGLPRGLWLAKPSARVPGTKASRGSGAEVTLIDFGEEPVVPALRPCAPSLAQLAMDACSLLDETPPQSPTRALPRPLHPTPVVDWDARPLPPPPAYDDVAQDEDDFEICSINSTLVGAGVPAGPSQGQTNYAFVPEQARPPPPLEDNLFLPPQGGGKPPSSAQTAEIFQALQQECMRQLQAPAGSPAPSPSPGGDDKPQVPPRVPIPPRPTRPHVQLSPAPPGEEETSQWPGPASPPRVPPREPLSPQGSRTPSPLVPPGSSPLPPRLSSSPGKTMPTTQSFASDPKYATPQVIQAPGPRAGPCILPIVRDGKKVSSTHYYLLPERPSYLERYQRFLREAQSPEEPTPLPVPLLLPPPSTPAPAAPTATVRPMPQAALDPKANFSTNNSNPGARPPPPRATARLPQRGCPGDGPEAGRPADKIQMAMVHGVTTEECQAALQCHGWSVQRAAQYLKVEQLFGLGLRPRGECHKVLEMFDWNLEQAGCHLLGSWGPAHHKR

Row | SMILES | IC50 (ERK5; [2]) [nM] | EC50 (human PBMCs) [nM] | inhibition at 1 µM (ACK; [3]) [%] | inhibition at 1 µM (JAK1; [4]) [%] | Kinase inhibition % at indicated screening concentration: ABL or ARG (ABL or ARG; screening concentration 1.0 μM) | inhibition at 1 µM (ERK5; [5]) [%] | Kinase inhibition % at indicated screening concentration: AurB or AurC (AurB or AurC; screening concentration 1.0 μM) | inhibition at 1 µM (ACK; [6]) [%] | inhibition at 1 µM (JAK1; [7]) [%] | ABL or ARG Inhibition % at indicated screening concentration (ABL or ARG) | IC50 (ERK5; [8]) [nM] | inhibition at 1 µM (ERK5; [9]) [%] | AurB or AurC Inhibition % at indicated screening concentration (AurB or AurC) | other results
1 | CN1C(=O)c2ccccc2N(C)c2cc(Nc3ccc(C(=O)N4CC[C@@H](N(C)C)C4)cc3F)ncc21 [Compound 110] | ≤ 50 | 1760 ± 500 | – | – | – | – | – | – | – | – | – | – | – | inhibition at 10 µM (ACK; screening concentration 10.0 μM, read-out: Kinase inhibition % at indicated screening concentration: ACK): ≤ 35%; inhibition at 10 µM (JAK1; screening concentration 10.0 μM, read-out: Kinase inhibition % at indicated screening concentration: JAK1): ≤ 35%; Kinase inhibition % at indicated screening concentration: ABL or ARG (ABL or ARG; [1]): E (E is ≦35%); inhibition at 10 µM (ERK5; screening concentration 10.0 μM, read-out: Kinase inhibition % at indicated screening concentration: ERK5): > 90%; Kinase inhibition % at indicated screening concentration: AurB or AurC (AurB or AurC; [1]): C (C is >50% to ≦75%)
2 | CCOc1cc(C(=O)N2CCOCC2)ccc1Nc1cc2c(cn1)N(C)C(=O)c1ccccc1N2C [Compound 111] | ≤ 50 | 540 | ≤ 35 | ≤ 35 | E (E is ≦35%) | ≤ 35 | E (E is ≦35%) | – | – | – | – | – | – | –
3 | CCOc1cc(C(=O)N2CC(N3CCCCC3)C2)ccc1Nc1cc2c(cn1)N(C)C(=O)c1ccccc1N2C [Compound 114] | ≤ 50 | 530 | – | – | – | – | – | – | – | – | – | – | – | inhibition at 0.1 µM (ACK; screening concentration 0.1 μM, read-out: Kinase inhibition % at indicated screening concentration: ACK): ≤ 35%; inhibition at 0.1 µM (JAK1; screening concentration 0.1 μM, read-out: Kinase inhibition % at indicated screening concentration: JAK1): ≤ 35%; Kinase inhibition % at indicated screening concentration: ABL or ARG (ABL or ARG; screening concentration 0.1 μM): E (E is ≦35%); inhibition at 0.1 µM (ERK5; screening concentration 0.1 μM, read-out: Kinase inhibition % at indicated screening concentration: ERK5): > 90%; Kinase inhibition % at indicated screening concentration: AurB or AurC (AurB or AurC; screening concentration 0.1 μM): E (E is ≦35%)
4 | CCOc1cc(C(=O)N2CC[C@@H](N(C)C)C2)ccc1Nc1cc2c(cn1)N(C)C(=O)c1ccccc1N2C [Compound 115] | ≤ 50 | 840 ± 530 | ≤ 35 | ≤ 35 | E (E is ≦35%) | > 90 | E (E is ≦35%) | – | – | – | – | – | – | –
5 | CCOc1cc(C(=O)N2CCC(CN3CCOCC3)CC2)ccc1Nc1cc2c(cn1)N(C)C(=O)c1ccccc1N2C [Compound 120] | ≤ 50 | 860 | ≤ 35 | ≤ 35 | E (E is ≦35%) | > 90 | E (E is ≦35%) | – | – | – | – | – | – | –
6 | CCOc1cc(C(=O)N(CC)CCN(CC)CC)ccc1Nc1cc2c(cn1)N(C)C(=O)c1ccccc1N2C [Compound 122] | ≤ 50 | 1130 ± 380 | ≤ 35 | ≤ 35 | E (E is ≦35%) | > 90 | E (E is ≦35%) | – | – | – | – | – | – | –
7 | CCOc1cc(C(=O)N2CCC(NC(C)C)C2)ccc1Nc1cc2c(cn1)N(C)C(=O)c1ccccc1N2C (stereo not shown) [Compound T4] | – | 490 | – | – | – | – | – | ≤ 35 | ≤ 35 | E (E is ≦35%) | ≤ 50 | > 90 | E (E is ≦35%) | –
8 | CCOc1cc(C(=O)N2C[C@H]3CCN[C@H]3C2)ccc1Nc1cc2c(cn1)N(C)C(=O)c1ccccc1N2C [Compound T5] | – | 840 | – | – | – | – | – | ≤ 35 | ≤ 35 | E (E is ≦35%) | ≤ 50 | > 90 | E (E is ≦35%) | –
9 | CCOc1cc(C(=O)N2CCN(C3CCN(C)CC3)CC2)ccc1Nc1cc2c(cn1)N(C)C(=O)c1ccccc1N2C [Compound T8] | – | 410 ± 120 | – | – | – | – | – | ≤ 35 | ≤ 35 | E (E is ≦35%) | ≤ 50 | > 90 | E (E is ≦35%) | –
10 | CCOc1cc(C(=O)N2CC[C@@H](NCCF)C2)ccc1Nc1cc2c(cn1)N(C)C(=O)c1ccccc1N2C [Compound T9] | – | 590 | – | – | – | – | – | ≤ 35 | ≤ 35 | E (E is ≦35%) | ≤ 50 | > 90 | E (E is ≦35%) | –
